In PMC13286198 (PLOS One, 2026) one finds Cmax and Vz data, which are given here for 2 compounds.

The nature of this data set: Pharmacokinetic interaction study in rats, plasma by UPLC-MS/MS. The data set is classed as in vivo, Sprague–Dawley rats. The settings on record: oral, n = 6.

Procedure: The sample size for each group of rats was calculated using the resource equation method [27]. The doses were chosen by converting the clinically recommended doses for patients to animal doses. […] The value of Km represents the equivalent dose ratio between humans and rats, calculated based on body surface area. […] The following groups received control solvents corresponding to each drug for a duration of seven consecutive days. […] Conversely, remaining groups were treated with their respective drugs at the aforementioned doses for seven consecutive days. […] Blood samples were centrifuged at 3,500 rpm for 10 min, and the supernatant was collected and stored at -80°C until processing for UPLC-MS/MS. The induction of anesthesia was performed using 5% isoflurane, and the concentration was maintained at 2% throughout the blood collection process. The blood was extracted from the eye venous plexus by well-trained professionals to minimize the animal's suffering. Following blood collection, rat liver, intestinal and kidney tissues were collected for molecular analysis on the seventh day post-treatment with the corresponding drugs for each group. Before euthanizing the animals, they were required to fast for at least 12 hours. Using sodium pentobarbital (2 g/kg) to put the animals into a deep state of anesthesia, Collect the required tissue samples and the rats were euthanized by cervical dislocation. […] The temperature maintained at 40 by gradient elution. […] Aliquots (8 μL) of these redissolved samples were used into the UPLC-MS/MS system for subsequent analysis. […] Analysis was conducted in a non-compartmental model. The metrics such as the area under the concentration-time curve (AUC), maximum plasma concentration (Cmax), time to reach Cmax (Tmax), elimination half-life (t1/2), plasma clearance volume per time unit (CLz/F), apparent volume of distribution (Vz), and mean residence time (MRT) were expressed as mean ± standard deviation (SD). Comparisons corresponding test groups were conducted using SPSS 25.0 software (SPSS Inc., Chicago, IL, USA).

The compound `CCOc1ccc(Cc2cc([C@@]34OC[C@@](CO)(O3)[C@@H](O)[C@H](O)[C@H]4O)ccc2Cl)cc1F` [henagliflozin] gave a Cmax (henagliflozin 1 mg/kg after telmisartan 8 mg/kg for 7 days) of 356.83 ± 59.55 ng/mL. Besides, the Vz (henagliflozin 1 mg/kg alone) is 3.87 ± 1.49 L/kg.
Compound `CCCc1nc2c(C)cc(-c3nc4ccccc4n3C)cc2n1Cc1ccc(-c2ccccc2C(=O)O)cc1` [telmisartan] had a Cmax ((control of the henagliflozin study)) of 160.33 ± 24.57 ng/mL.

Broadly, the Cmax is the maximum level reached in the sampled fluid or tissue.
